Laboratory results taken from the supplement of paper PMC10307832.

compound: Cc1ccc(Nc2nccc(N(C)c3ccc4c(C)n(C)nc4c3)n2)cc1S(N)(=O)=O [Pazopanib] + Cc1cc(Nc2cc(N3CCN(C)CC3)nc(Sc3ccc(NC(=O)C4CC4)cc3)n2)n[nH]1 [Tozasertib] (partner 0.1 µM); assay: relative viability (nuclei count vs DMSO), 5 days (fraction); higher = more cells survive; conditions: first compound 0.01 µM
In short: (§1)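 The day after seeding in 1536-well plates, lung cancer cell lines were treated by pin tool with a single drug, or with a fixed anchor-drug dose together with five library-drug doses (not always all listed) in √10 steps. After 5 days, a combined fix-and-stain solution (final 0.05% Triton X-100, 1% formaldehyde, 1 ug/ml Hoechst) was added. Nuclei counted on 4× images gave relative viability as treated counts over vehicle counts, reported as the median of duplicate plates.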

Cell Line | relative viability
NCI-H2342 | 0.481
NCI-H1623 | 0.43
NCI-H838 | 0.278
NCI-H1650 | 0.47
NCI-H2347 | 0.45
PC-14 | 0.69
LCLC-103H | 0.456
NCI-H2126 | 0.805
NCI-H2085 | 0.738
HCC-366 | 0.124
NCI-H1666 | 0.573
NCI-H647 | 0.23
NCI-H2087 | 0.298
NCI-H1648 | 0.387
NCI-H1395 | 0.793
H3255 | 0.489
COR-L23 | 0.236

Cell Line | relative viability
COR-L 105 | 0.341
LOU-NH91 | 0.647
ChaGo-K-1 | 0.21
NCI-H358 | 0.109
NCI-H3122 | 0.408
HOP-62 | 0.366
HCC-44 | 0.872
NCI-H522 | 0.568
LU99A | 0.272
BEN | 0.481
HARA | 0.09
SW 900 | 0.556
HCC-78 | 0.334
NCI-H441 | 0.798
LCLC-97TM1 | 0.222
NCI-H2009 | 0.787
A-427 | 0.183

same assay, conditions: first compound 0.03162 µM

Cell Line | relative viability
NCI-H2342 | 0.554
NCI-H1623 | 0.455
NCI-H838 | 0.247
NCI-H1650 | 0.382
NCI-H1993 | 0.54
NCI-H2347 | 0.586
PC-14 | 0.636
LCLC-103H | 0.464
NCI-H596 | 0.942
NCI-H2126 | 0.828
EMC-BAC-2 | 0.302
NCI-H2085 | 0.848
HCC-366 | 0.132
NCI-H1666 | 0.649
NCI-H647 | 0.279
LK-2 | 0.178
NCI-H2087 | 0.27
NCI-H1648 | 0.57
NCI-H1395 | 0.715

Cell Line | relative viability
H3255 | 0.629
COR-L23 | 0.173
COR-L 105 | 0.345
LOU-NH91 | 0.664
ChaGo-K-1 | 0.221
NCI-H358 | 0.0888
NCI-H3122 | 0.382
HOP-62 | 0.388
HCC-44 | 0.913
NCI-H522 | 0.454
LU99A | 0.3
BEN | 0.463
HARA | 0.119
SW 900 | 0.443
HCC-78 | 0.429
NCI-H441 | 0.683
LCLC-97TM1 | 0.221
NCI-H2009 | 0.738
A-427 | 0.207

same assay, conditions: first compound 0.1 µM

Cell Line | relative viability
NCI-H2342 | 0.544
NCI-H1623 | 0.413
NCI-H838 | 0.29
NCI-H1650 | 0.443
NCI-H1993 | 0.656
NCI-H2347 | 0.607
PC-14 | 0.725
LCLC-103H | 0.46
NCI-H596 | 0.856
NCI-H2126 | 0.877
EMC-BAC-2 | 0.302
NCI-H2085 | 0.828
HCC-366 | 0.0845
NCI-H1666 | 0.625
NCI-H647 | 0.395
LK-2 | 0.201
NCI-H2087 | 0.279
NCI-H1648 | 0.398
NCI-H1395 | 0.764

Cell Line | relative viability
H3255 | 0.986
COR-L23 | 0.202
COR-L 105 | 0.356
LOU-NH91 | 0.749
ChaGo-K-1 | 0.241
NCI-H358 | 0.104
NCI-H3122 | 0.435
HOP-62 | 0.307
HCC-44 | 0.926
NCI-H522 | 0.493
LU99A | 0.277
BEN | 0.582
HARA | 0.603
SW 900 | 0.495
HCC-78 | 0.472
NCI-H441 | 0.784
LCLC-97TM1 | 0.185
NCI-H2009 | 0.613
A-427 | 0.207

same assay, conditions: first compound 0.3162 µM

Cell Line | relative viability
NCI-H2342 | 0.496
NCI-H1623 | 0.46
NCI-H838 | 0.28
NCI-H1650 | 0.539
NCI-H1993 | 0.589
NCI-H2347 | 0.593
PC-14 | 0.586
LCLC-103H | 0.467
NCI-H596 | 0.936
NCI-H2126 | 0.86
EMC-BAC-2 | 0.226
NCI-H2085 | 0.786
HCC-366 | 0.163
NCI-H1666 | 0.609
NCI-H647 | 0.43
LK-2 | 0.169
NCI-H2087 | 0.281
NCI-H1648 | 0.459
NCI-H1395 | 0.915

Cell Line | relative viability
H3255 | 0.656
COR-L23 | 0.214
COR-L 105 | 0.334
LOU-NH91 | 0.781
ChaGo-K-1 | 0.257
NCI-H3122 | 0.394
HOP-62 | 0.431
HCC-44 | 0.843
NCI-H522 | 0.646
LU99A | 0.262
BEN | 0.516
HARA | 0.0772
SW 900 | 0.578
HCC-78 | 0.517
NCI-H441 | 0.558
LCLC-97TM1 | 0.195
NCI-H2009 | 0.801
A-427 | 0.217

same assay, conditions: first compound 1 µM

Cell Line | relative viability
NCI-H2342 | 0.388
NCI-H1623 | 0.393
NCI-H838 | 0.295
NCI-H1650 | 0.312
NCI-H1993 | 0.579
NCI-H2347 | 0.588
PC-14 | 0.603
LCLC-103H | 0.479
NCI-H596 | 0.761
NCI-H2126 | 0.842
EMC-BAC-2 | 0.278
NCI-H2085 | 0.776
HCC-366 | 0.068
NCI-H1666 | 0.648
NCI-H647 | 0.321
LK-2 | 0.174
NCI-H2087 | 0.256
NCI-H1648 | 0.476
NCI-H1395 | 0.747

Cell Line | relative viability
H3255 | 0.734
COR-L23 | 0.152
COR-L 105 | 0.382
LOU-NH91 | 0.698
ChaGo-K-1 | 0.255
NCI-H358 | 0.0878
NCI-H3122 | 0.426
HOP-62 | 0.286
HCC-44 | 0.78
NCI-H522 | 0.58
LU99A | 0.233
BEN | 0.482
HARA | 0.0838
SW 900 | 0.53
HCC-78 | 0.415
NCI-H441 | 0.518
LCLC-97TM1 | 0.166
NCI-H2009 | 0.51
A-427 | 0.186

compound: Cc1ccc(C(=O)Nc2ccc(CN3CCN(C)CC3)c(C(F)(F)F)c2)cc1C#Cc1cnc2cccnn12 [Ponatinib] + O=C(CCCCCCC(=O)Nc1ccccc1)NO [Vorinostat] (partner 1 µM); assay: as above; conditions: first compound 0.002 µM
In short: as §1

Cell Line | relative viability
NCI-H2342 | 0.676
NCI-H838 | 0.755
NCI-H1650 | 0.642
NCI-H1993 | 0.783
NCI-H2347 | 0.496
PC-14 | 0.68
LCLC-103H | 0.701
NCI-H596 | 0.659
NCI-H2126 | 0.784
EMC-BAC-2 | 0.288
NCI-H2085 | 0.768
HCC-366 | 0.329
NCI-H1666 | 0.998
NCI-H647 | 0.381
LK-2 | 0.261
NCI-H2087 | 0.635
NCI-H1648 | 0.381
NCI-H1395 | 0.483
H3255 | 0.613

Cell Line | relative viability
COR-L23 | 0.31
COR-L 105 | 0.802
IA-LM | 0.913
LOU-NH91 | 0.889
ChaGo-K-1 | 0.699
NCI-H358 | 0.644
NCI-H3122 | 0.936
HOP-62 | 0.516
HCC-44 | 1.1
NCI-H522 | 0.853
LU99A | 0.439
BEN | 0.562
SW 900 | 0.382
HCC-78 | 0.458
NCI-H441 | 0.647
LCLC-97TM1 | 0.806
NCI-H2009 | 0.666
A-427 | 0.829

same assay, conditions: first compound 0.006325 µM

Cell Line | relative viability
NCI-H2342 | 0.779
NCI-H838 | 0.764
NCI-H1650 | 0.539
NCI-H1993 | 1.19
NCI-H2347 | 0.554
PC-14 | 0.668
LCLC-103H | 0.821
NCI-H596 | 0.7
NCI-H2126 | 0.777
EMC-BAC-2 | 0.337
NCI-H2085 | 0.877
HCC-366 | 0.318
NCI-H1666 | 1.01
NCI-H647 | 0.588
LK-2 | 0.284
NCI-H2087 | 0.549
NCI-H1648 | 0.335
NCI-H1395 | 0.578
H3255 | 0.85

Cell Line | relative viability
COR-L23 | 0.403
COR-L 105 | 0.953
IA-LM | 0.875
LOU-NH91 | 0.988
ChaGo-K-1 | 0.732
NCI-H358 | 0.634
NCI-H3122 | 1.07
HOP-62 | 0.509
HCC-44 | 1.07
NCI-H522 | 0.964
LU99A | 0.519
BEN | 0.631
HARA | 0.491
SW 900 | 0.516
HCC-78 | 0.486
NCI-H441 | 0.675
LCLC-97TM1 | 0.748
NCI-H2009 | 0.783
A-427 | 0.904

same assay, conditions: first compound 0.06325 µM

Cell Line | relative viability
NCI-H2342 | 0.886
NCI-H838 | 0.773
NCI-H1650 | 0.654
NCI-H1993 | 0.962
NCI-H2347 | 0.643
PC-14 | 0.9
LCLC-103H | 0.848
NCI-H596 | 0.556
NCI-H2126 | 0.988
EMC-BAC-2 | 0.427
NCI-H2085 | 1.02
HCC-366 | 0.416
NCI-H1666 | 1.08
NCI-H647 | 0.686
LK-2 | 0.341
NCI-H2087 | 0.366
NCI-H1648 | 0.455
NCI-H1395 | 0.678
H3255 | 0.75

Cell Line | relative viability
COR-L23 | 0.52
COR-L 105 | 0.899
IA-LM | 0.861
LOU-NH91 | 1.01
ChaGo-K-1 | 0.664
NCI-H358 | 0.669
NCI-H3122 | 0.994
HOP-62 | 0.682
HCC-44 | 1.07
NCI-H522 | 0.95
LU99A | 0.535
BEN | 0.666
HARA | 0.548
SW 900 | 0.591
HCC-78 | 0.497
NCI-H441 | 0.822
LCLC-97TM1 | 0.665
NCI-H2009 | 0.694
A-427 | 1.03

same assay, conditions: first compound 0.2 µM

Cell Line | relative viability
NCI-H2342 | 0.731
NCI-H838 | 0.664
NCI-H1650 | 0.65
NCI-H1993 | 0.734
NCI-H2347 | 0.504
PC-14 | 0.647
LCLC-103H | 0.765
NCI-H596 | 0.522
NCI-H2126 | 0.789
EMC-BAC-2 | 0.368
NCI-H2085 | 0.825
HCC-366 | 0.317
NCI-H1666 | 0.89
NCI-H647 | 0.513
LK-2 | 0.345
NCI-H2087 | 0.662
NCI-H1648 | 0.462
NCI-H1395 | 0.416
H3255 | 0.782
